Laboratory results from ChEMBL document CHEMBL3259687, “Synthesis and identification of chiral aminomethylpiperidine carboxamides as inhibitor of collagen induced platelet activation” (Eur J Med Chem, 2014).
The source made the active and inactive calls. The calls are words filed in the database; no cut-off is given here.

Tests used:
[1] = Antiplatelet activity in human platelet-rich plasma assessed as inhibition of collagen-induced platelet aggregation at 10 uM treated for 5 mins prior to collagen challenge for 5 mins by turbidimetric method; format: functional
Mus musculus [2] = assay: Antithrombotic activity in mouse assessed as protection against collagen-epinephrine-induced pulmonary thromboembolism at 30 uM/kg, po administered 60 mins prior to thrombotic challenge; format: functional
Mus musculus [3] = assay: Prolongation of bleeding time in mouse at 30 uM/kg, po administered as single dose by tail excision method; format: ADME, organism-based; settings: in vivo
[4] = Antiplatelet activity in human platelet-rich plasma assessed as inhibition of collagen-induced platelet aggregation at 30 uM treated for 5 mins prior to collagen challenge for 5 mins by turbidimetric method; format: functional
[5] = Antiplatelet activity in human platelet-rich plasma assessed as inhibition of collagen-induced platelet aggregation treated for 5 mins prior to collagen challenge for 5 mins by turbidimetric method; format: functional, cell-free
[6] = Antiplatelet activity in human platelet-rich plasma assessed as inhibition of arachidonic acid-induced platelet aggregation treated for 5 mins prior to arachidonic acid challenge for 5 mins by turbidimetric method; format: functional, cell-free
Platelet [7] = assay: Antiplatelet activity in human platelet-rich plasma assessed as inhibition of ADP-induced platelet aggregation treated for 5 mins prior to ADP challenge for 5 mins by turbidimetric method; format: functional, cell-free
Platelet [8] = assay: Antiplatelet activity in human platelet-rich plasma assessed as inhibition of ristocetin-induced platelet aggregation treated for 5 mins prior to ristocetin challenge for 5 mins by turbidimetric method; format: functional, cell-free
Platelet [9] = assay: Antiplatelet activity in human platelet-rich plasma assessed as inhibition of TRAP-induced platelet aggregation treated for 5 mins prior to TRAP challenge for 5 mins by turbidimetric method; format: functional, cell-free
[10] = Antiplatelet activity in human platelet-rich plasma assessed as inhibition of U46619-induced platelet aggregation treated for 5 mins prior to U46619 challenge for 5 mins by turbidimetric method; format: functional, cell-free

CC(C)(C)OC(=O)NC[C@H]1CCCN(C(=O)[C@@H]2CCC(=O)N2Cc2cccc(C#N)c2)C1
inhibition at 10 µM [1]: 19% | Activity (Mus musculus [2]): 20%

CC(C)(C)OC(=O)NCC1CCCN(C(=O)[C@@H]2CCC(=O)N2C/C=C/c2ccccc2)C1 (mixture of isomers)
Activity (Mus musculus [2]): 30% | Activity (Mus musculus [3]): 0% | inhibition at 30 µM [4]: 42%

Cc1ccc(CN2C(=O)CC[C@H]2C(=O)N2CCC[C@@H](CNC(=O)[C@H](Cc3ccccc3)NC(=O)OCc3ccccc3)C2)cc1
Activity (Mus musculus [2]): 30%

CC(C)(C)OC(=O)NC[C@@H]1CCCN(C(=O)[C@@H]2CCC(=O)N2Cc2ccccc2Br)C1
inhibition at 10 µM [1]: 27% | Activity (Mus musculus [2]): 50%

CC(C)(C)OC(=O)NC[C@@H]1CCCN(C(=O)[C@@H]2CCC(=O)N2Cc2cccc(C#N)c2)C1
inhibition at 10 µM [1]: 6% | Activity (Mus musculus [2]): 30%

Cc1cccc(CN2C(=O)CC[C@H]2C(=O)N2CCC[C@@H](CNC(=O)OC(C)(C)C)C2)c1
inhibition at 10 µM [1]: 28% | Activity (Mus musculus [2]): 30%

CC(C)(C)OC(=O)NC[C@H]1CCCN(C(=O)[C@@H]2CCC(=O)N2Cc2ccc(C#N)cc2)C1
inhibition at 10 µM [1]: 25% | Activity (Mus musculus [2]): 10%

CC(C)(C)OC(=O)NCC1CCN(C(=O)[C@@H]2CCC(=O)N2Cc2c(Cl)cccc2Cl)CC1
Activity (Mus musculus [2]): 70% | Activity (Mus musculus [3]): 50% | inhibition at 30 µM [4]: 80%

CC(C)(C)OC(=O)NC[C@@H]1CCCN(C(=O)[C@@H]2CCC(=O)N2Cc2c(Cl)cccc2Cl)C1
inhibition at 10 µM [1]: 24% | Activity (Mus musculus [2]): 20%

CC(C)(C)C(=O)NCC1CCCN(C(=O)[C@@H]2CCC(=O)N2Cc2ccccc2)C1 (mixture of isomers)
Activity (Mus musculus [2]): 50% | Activity (Mus musculus [3]): 41% | inhibition at 30 µM [4]: 2.4%

Cc1ccc(CN2C(=O)CC[C@H]2C(=O)N2CCC[C@@H](CNC(=O)c3ccc(C)cc3)C2)cc1
Activity (Mus musculus [2]): 30%

Cc1ccc(C(=O)N2CSC[C@H]2C(=O)N2CCC[C@H](CNC(=O)OC(C)(C)C)C2)cc1
Activity (Mus musculus [2]): 40% | Activity (Mus musculus [3]): 50%

COc1cccc(CN2C(=O)CC[C@H]2C(=O)N2CCC[C@@H](CNC(=O)OC(C)(C)C)C2)c1
inhibition at 10 µM [1]: 34%

COc1ccc(CN2C(=O)CC[C@H]2C(=O)N2CCC[C@H](CNC(=O)OC(C)(C)C)C2)cc1
inhibition at 10 µM [1]: 25% | Activity (Mus musculus [2]): 20%

O=C([C@@H]1CCC(=O)N1Cc1ccccc1)N1CCN(c2ccccc2F)CC1
Activity (Mus musculus [2]): 50% | inhibition (INH) [5]: 57%

COc1cccc(CN2C(=O)CC[C@H]2C(=O)N2CCC[C@H](CNC(=O)OC(C)(C)C)C2)c1
inhibition at 10 µM [1]: 6% | Activity (Mus musculus [2]): 22.3%

CC(C)(C)OC(=O)NC[C@@H]1CCCN(C(=O)[C@@H]2CCC(=O)N2Cc2ccc(Cl)cc2)C1
inhibition at 10 µM [1]: 35% | Activity (Mus musculus [2]): 50%

Cc1ccc(CN2C(=O)COC(C)[C@H]2C(=O)N2CCC[C@H](CNC(=O)OC(C)(C)C)C2)cc1 (stereo partly drawn)
Activity (Mus musculus [2]): 30%

Cc1ccc(CN2C(=O)CC[C@H]2C(=O)N2CCC[C@@H](CNS(=O)(=O)c3ccc(C)cc3)C2)cc1
Activity (Mus musculus [2]): 40%

CC(C)(C)OC(=O)NC[C@@H]1CCCN(C(=O)[C@@H]2CCC(=O)N2Cc2ccc(Br)cc2)C1
inhibition at 10 µM [1]: 20% | Activity (Mus musculus [2]): 40%

COc1ccccc1CN1C(=O)CC[C@H]1C(=O)N1CCC[C@H](CNC(=O)OC(C)(C)C)C1
inhibition at 10 µM [1]: 22% | Activity (Mus musculus [2]): 50%

Cc1ccc(CN2C(=O)CCC[C@H]2C(=O)N2CCC[C@H](CNC(=O)OC(C)(C)C)C2)cc1
inhibition at 10 µM [1]: 22% | Activity (Mus musculus [2]): 50%

CC(C)(C)OC(=O)NC[C@H]1CCCN(C(=O)[C@@H]2CCC(=O)N2Cc2c(Cl)cccc2Cl)C1
inhibition at 10 µM [1]: 22% | Activity (Mus musculus [2]): 10%

CC(C)(C)OC(=O)NC[C@@H]1CCCN(C(=O)[C@@H]2CCC(=O)N2Cc2ccccc2)C1
inhibition at 10 µM [1]: 26% | Activity (Mus musculus [2]): 20%

O=C(CNC(=O)OCc1ccccc1)NCC1CCCN(C(=O)[C@@H]2CCC(=O)N2Cc2ccccc2)C1 (mixture of isomers)
Activity (Mus musculus [2]): 40% | Activity (Mus musculus [3]): 13% | inhibition at 30 µM [4]: 12%

Cc1ccc(CN2C(=O)OC[C@H]2C(=O)N2CCC[C@H](CNC(=O)OC(C)(C)C)C2)cc1
Activity (Mus musculus [2]): 20% | Activity (Mus musculus [3]): 10%

CC(C)(C)OC(=O)NC[C@H]1CCCN(C(=O)[C@@H]2CCC(=O)N2Cc2ccccc2)C1
inhibition at 10 µM [1]: 17% | Activity (Mus musculus [2]): 50%

CC(C)(C)OC(=O)NC[C@@H]1CCCN(C(=O)[C@@H]2CCC(=O)N2Cc2ccc(C#N)cc2)C1
inhibition at 10 µM [1]: 8% | Activity (Mus musculus [2]): 60%

CC1OCC(=O)N(Cc2ccccc2)[C@@H]1C(=O)N1CCC[C@@H](CNC(=O)OC(C)(C)C)C1 (stereo partly drawn)
Activity (Mus musculus [2]): 20%

Cc1ccc(CN2C(=O)OC[C@H]2C(=O)N2CCC[C@@H](CNC(=O)OC(C)(C)C)C2)cc1
Activity (Mus musculus [2]): 30% | Activity (Mus musculus [3]): 54%

Cc1ccc(CN2C(=O)COC(C)[C@H]2C(=O)N2CCC[C@@H](CNC(=O)OC(C)(C)C)C2)cc1 (stereo partly drawn)
Activity (Mus musculus [2]): 20%

Cc1ccc(CN2C(=O)CC[C@H]2C(=O)N2CCC[C@@H](CNC(=O)[C@H](CC(C)C)NC(=O)OCc3ccccc3)C2)cc1
Activity (Mus musculus [2]): 30%

CC(C)(C)OC(=O)NC[C@H]1CCCN(C(=O)[C@@H]2CCC(=O)N2Cc2ccc3ccccc3c2)C1
inhibition at 10 µM [1]: 22% | Activity (Mus musculus [2]): 22.3%

COc1ccccc1CN1C(=O)CC[C@H]1C(=O)N1CCC[C@@H](CNC(=O)OC(C)(C)C)C1
inhibition at 10 µM [1]: 32% | Activity (Mus musculus [2]): 40%

CC(C)(C)OC(=O)NC[C@H]1CCCN(C(=O)[C@@H]2CCC(=O)N2Cc2ccccc2Br)C1
inhibition at 10 µM [1]: 6% | Activity (Mus musculus [2]): 50%

CC1OCC(=O)N(Cc2ccccc2)[C@@H]1C(=O)N1CCC[C@H](CNC(=O)OC(C)(C)C)C1 (stereo partly drawn)
Activity (Mus musculus [2]): 20%

CC(C)(C)OC(=O)NC[C@@H]1CCCN(C(=O)[C@@H]2CCC(=O)N2Cc2ccc(Cl)c(Cl)c2)C1
inhibition at 10 µM [1]: 27% | Activity (Mus musculus [2]): 20%

CC(C)(C)OC(=O)NC[C@H]1CCCN(C(=O)[C@@H]2CCC(=O)N2Cc2ccc(Br)cc2)C1
inhibition at 10 µM [1]: 4% | Activity (Mus musculus [2]): 50%

O=C([C@@H]1CCC(=O)N1Cc1ccccc1)N1CCN(c2ccccc2Cl)CC1
Activity (Mus musculus [2]): 40% | inhibition (INH) [5]: 74%

Cc1ccc(S(=O)(=O)NCC2CCCN(C(=O)[C@@H]3CCC(=O)N3Cc3ccccc3)C2)cc1 (mixture of isomers)
Activity (Mus musculus [2]): 25% | Activity (Mus musculus [3]): 0% | inhibition at 30 µM [4]: 72%

CC(C)(C)OC(=O)NC[C@@H]1CCCN(C(=O)[C@@H]2CCC(=O)N2Cc2ccc3ccccc3c2)C1
inhibition at 10 µM [1]: 29% | Activity (Mus musculus [2]): 30%

CC(C)(C)OC(=O)NCC1CCCN(C(=O)[C@@H]2CCC(=O)N2Cc2ccccc2Cl)C1 (mixture of isomers)
Activity (Mus musculus [2]): 70% | Activity (Mus musculus [3]): 60% | inhibition at 30 µM [4]: 15%

Cc1cccc(CN2C(=O)CC[C@H]2C(=O)N2CCC[C@H](CNC(=O)OC(C)(C)C)C2)c1
inhibition at 10 µM [1]: 13% | Activity (Mus musculus [2]): 70%

CC(C)(C)OC(=O)NCC1CCCN(C(=O)[C@@H]2CCC(=O)N2Cc2ccc(Br)cc2)C1 (mixture of isomers)
Activity (Mus musculus [2]): 67% | Activity (Mus musculus [3]): 60% | inhibition at 30 µM [4]: 66.4%

Cc1ccc(CN2C(=O)CCC[C@H]2C(=O)N2CCC[C@@H](CNC(=O)OC(C)(C)C)C2)cc1
inhibition at 10 µM [1]: 18% | Activity (Mus musculus [2]): 40%

Cc1ccc(C(=O)N2CSC[C@H]2C(=O)N2CCC[C@@H](CNC(=O)OC(C)(C)C)C2)cc1
Activity (Mus musculus [2]): 10% | Activity (Mus musculus [3]): 8%

Cc1ccc(CN2CSC[C@H]2C(=O)N2CCC[C@H](CNC(=O)OC(C)(C)C)C2)cc1
Activity (Mus musculus [2]): 60% | Activity (Mus musculus [3]): 72% | inhibition (INH) [6]: 93% | IC50 ([6]; Homo sapiens, Platelet, Plasma): 6 µM | inhibition (Platelet [7]): inactive | inhibition (Platelet [8]): inactive | inhibition (Platelet [9]): inactive | inhibition (INH) [10]: 100% | IC50 ([10]; Homo sapiens, Platelet, Plasma): 2.7 µM | inhibition (INH) [5]: 87% | IC50 ([5]; Homo sapiens, Platelet, Plasma): 3.3 µM

CC(C)(C)OC(=O)NC[C@H]1CCCN(C(=O)[C@@H]2CCC(=O)N2Cc2ccc(Cl)cc2)C1
inhibition at 10 µM [1]: 21% | Activity (Mus musculus [2]): 15%

Cc1ccc(CN2C(=O)CSCC2C(=O)N2CCC[C@@H](CNC(=O)OC(C)(C)C)C2)cc1 (single isomer, unassigned)
inhibition at 10 µM [1]: 15% | Activity (Mus musculus [2]): 30%

COc1ccc(CN2C(=O)CC[C@H]2C(=O)N2CCC[C@@H](CNC(=O)OC(C)(C)C)C2)cc1
inhibition at 10 µM [1]: 7% | Activity (Mus musculus [2]): 20%

Cc1ccc(CN2C(=O)CSC[C@H]2C(=O)N2CCCC(CNC(=O)OC(C)(C)C)C2)cc1 (single isomer, unassigned)
inhibition at 10 µM [1]: 18% | Activity (Mus musculus [2]): 30%

Cc1ccc(CN2C(=O)CC[C@H]2C(=O)N2CCC[C@@H](CNC(=O)[C@@H](NC(=O)OCc3ccccc3)C(C)C)C2)cc1
Activity (Mus musculus [2]): 10%

O=C(NCC1CCN(C(=O)[C@@H]2CCC(=O)N2Cc2ccc(Br)cc2)CC1)OCc1ccccc1
Activity (Mus musculus [2]): 70% | Activity (Mus musculus [3]): 25% | inhibition at 30 µM [4]: 11%

CC(C)(C)OC(=O)NCC1CCN(C(=O)[C@@H]2CCC(=O)N2Cc2ccc(C#N)cc2)CC1
Activity (Mus musculus [2]): 40% | Activity (Mus musculus [3]): 0% | inhibition at 30 µM [4]: 34%

CC(C)(C)OC(=O)NC[C@H]1CCCN(C(=O)[C@@H]2CCC(=O)N2Cc2ccc(Cl)c(Cl)c2)C1
inhibition at 10 µM [1]: 24% | Activity (Mus musculus [2]): 30%
